This is an account of results in US4458077A, “Heterocyclic anti-ulcer agents” (American Home Products Corporation, priority 1982, dated 1984).

Read-outs that look alike come from different tables or passages of the source.

Data set [1] deals with H2 histamine receptors (Cavia porcellus, UniProt P47747). The data set can be described thus: guinea pig heart atrium test: inhibition of histamine-induced positive chronotropic response (H2 antagonist activity). The protocol: (§1) The results for some of the compounds of the invention in these procedures is presented at the end of the following examples, which will serve to illustrate the present invention.
The guniea pig heart atrium test is carried out as follows:
A guinea pig right atrium is suspended at 1 g. tension (isometric) in a thermostatically controlled (32° C.) tissue bath (10 ml) containing oxygenated (95% O2; 5% CO2) Krebs-Haenseleit buffer (pH 7.4). The tissue is allowed to stabilize over 1 hour. Individual contractions are recorded with a force-displacement transducer through a strain gauge coupler. A control dose-response curve to histamine in the above described tissue bath is obtained after which the tissue is washed 3 times and allowed to re-equilibrate to basal rate. The test compound is added to the tissue bath at the desired final concentration. Thirty minutes after addition of the compound, a fresh histamine dose response curve is again obtained. Then the response to histamine in the presence of antagonist is compared to the histamine control response. This procedure is repeated, using fresh tissues, for each concentration of antagonist tested. The result is expressed as the apparent dissociation constant (pA2) of the H2 antagonist as determined by standard procedures. Cimetidine is used as the standard for this test.

Data set [2] deals with gastric acid secretion. As to the kind of experiment: gastric secretion in the pylorus-ligated rat (modified Shay procedure). In kind it is in vivo. The note with it: 32 mg/kg, interduodenally (i.d.), pylorus-ligated male Charles River rats, 4 hours after ligation. The protocol:
as §1
The procedure for testing gastric secretion in the rat, a modification of the procedure of Shay et al., Gastroenterology, 26, 906-13 (1954) is carried out as follows:
Male Charles River rats weighing 200-300 grams are deprived of food but not water for 24 hours prior to use. Water is, however, withheld during the experiment. The rats are weighed, anesthetized, and the pylorus ligated according to the method of Shay et al. Treatment or vehicle control is then administered interduodenally (i.d.). Rats are housed 2/cage and sacrificed with CO2 four hours after ligation. The stomachs are removed, rinsed, and contents emptied into a graduated centrifuge tube. The tubes are centrifuged for 20 minutes at 2,000 RPM and the volume of gastric juice recorded. Any samples obviously contamined by feces, food or hemolysis are eliminated. An aliquot of each is frozen for later analysis of Na^+, K^+ and Cl^- concentration. The pH is measured and 1 ml. of gastric juice is titrated with 0.1N NaOH to a pH of 7.0-7.4. Titrable acid output is calculated in microequivalents and the percent inhibition of acid output is calculated as follows: [formula]

The conditions of data set [3]: background, cited from earlier work.
Setting [4] is: apparent dissociation constant (pA2) vs histamine, guinea pig right atrium, 32° C, pH 7.4, 30 min after compound, three experiments, read-out: pA2 Value (converted).

H2 histamine receptors, sequence (P47747 whole entry): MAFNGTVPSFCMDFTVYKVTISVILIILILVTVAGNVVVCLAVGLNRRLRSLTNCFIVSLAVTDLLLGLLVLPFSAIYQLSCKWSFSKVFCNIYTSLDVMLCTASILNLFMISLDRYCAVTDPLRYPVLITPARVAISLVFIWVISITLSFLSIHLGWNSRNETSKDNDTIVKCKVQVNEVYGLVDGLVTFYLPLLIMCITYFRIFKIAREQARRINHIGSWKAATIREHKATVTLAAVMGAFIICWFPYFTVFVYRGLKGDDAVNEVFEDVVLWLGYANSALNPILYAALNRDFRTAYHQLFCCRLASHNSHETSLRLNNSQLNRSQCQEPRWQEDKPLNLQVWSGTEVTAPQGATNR

Consider `CNC(=C[N+](=O)[O-])NOCCOCc1ccc(CN(C)C)o1` [Example 2, N-[2-[[5-[(dimethylamino)methyl]-2-furanyl]methoxy]ethoxy]-N'-methyl-2-nitro-1,1-ethenediamine, ethanedioate], for which the Kb in data set [1] (setting [4]) was 9120 nM.
Same read-out and setting: then `CNC(=S)NOCCOCc1ccc(CN(C)C)o1` [Example 4, N-[2-[[5-[(dimethylamino)methyl]-2-furanyl]methoxy]ethoxy]-N'-methyl-thiourea, 1/2 hydrate], with 1260 nM.
For the compound `CNC(=C[N+](=O)[O-])NOCCCc1csc(NC(=N)N)n1` [Example 5, [4-[3-[[[1-(methylamino)-2-nitroethenyl]amino]oxy]propyl]-2-thiazolyl]guanidine], the Kb in data set [1] (printed in pA2 column, footnote *: KB value, result of only one experiment, guinea pig right atrium vs histamine, read-out: KB value) was determined as 108 nM. For the same compound, in data set [2], the “% Inhibition (of acid output)” value is recorded as 72%.
With `CN/C(=N/CCSCc1nc[nH]c1C)NC#N` [cimetidine], the “confusional states (limitation)” value in data set [3] (elderly patients) is given as “a tendency to cause confusional states in elderly patients”. The “anti-androgenic activity (limitation)” value in data set [3] (patients) is given as “anti-androgenic activity”.
